Results as given in ChEMBL document CHEMBL5331075, “New antileishmanial quinoline linked isatin derivatives targeting DHFR-TS and PTR1: Design, synthesis, and molecular modeling studies” (Eur J Med Chem, 2023).

Legend:
[1] = system: Leishmania major; assay: Antileishmanial activity against Leishmania major promastigotes assessed as parasite growth inhibition incubated for 24 hrs by Alamar blue staining based assay; assay type: functional, organism-based
[2] = system: Leishmania major; assay: Antileishmanial activity against Leishmania major amastigotes assessed as parasite growth inhibition incubated for 72 hrs by resazurin dye based assay; assay type: functional, organism-based
[3] = system: Leishmania major; assay: Antileishmanial activity against Leishmania major promastigotes assessed as parasite growth inhibition at 100 uM incubated for 48 hrs in presence of folic acid relative to control; assay type: functional; set-up: scale not given: the % may be the effect or the level left
[4] = system: Leishmania major; assay: Antileishmanial activity against Leishmania major promastigotes assessed as parasite growth inhibition incubated for 48 hrs; assay type: functional; set-up: scale not given: the % may be the effect or the level left
[5] = Selectivity index, ratio of CC50 for cytotoxicity against African green monkey Vero cells to IC50 for antileishmanial activity against Leishmania major amastigotes assessed as parasite growth inhibition; assay type: toxicity, cell-based; conditions: read-out: Ratio CC50/IC50
[6] = system: Leishmania major; assay: Antileishmanial activity against Leishmania major promastigotes assessed as parasite growth inhibition at 20 uM incubated for 48 hrs in presence of folinic acid relative to control; assay type: functional; set-up: scale not given: the % may be the effect or the level left
[7] = system: Leishmania major; assay: Antileishmanial activity against Leishmania major promastigotes assessed as parasite growth inhibition at 20 uM incubated for 48 hrs in presence of folic acid relative to control; assay type: functional; set-up: scale not given: the % may be the effect or the level left
[8] = system: Leishmania major; assay: Antileishmanial activity against Leishmania major promastigotes assessed as parasite growth inhibition at 100 uM incubated for 48 hrs in presence of folinic acid relative to control; assay type: functional; set-up: scale not given: the % may be the effect or the level left
[9] = Cytotoxicity against African green monkey Vero cells assessed as reduction in cell viability incubated for 72 hrs by crystal violet staining based analysis; assay type: toxicity; conditions: chlorocebus sabaeus

SMILES | IC50 [1] | IC50 [2] | further results
O=C1/C(=N/Nc2ccnc3cc(Cl)ccc23)c2cc(Br)ccc2N1Cc1ccccc1 | 5.95 µM | 8.29 µM | 
CC(C)CN1C(=O)/C(=N/Nc2ccnc3cc(Cl)ccc23)c2cc(Cl)ccc21 | 3.5 µM | 6.03 µM | 
CCN1C(=O)/C(=N\Nc2ccnc3cc(Cl)ccc23)c2ccccc21 | 3.45 µM | 5.85 µM | 
O=C1Nc2c(F)cccc2/C1=N/Nc1ccnc2cc(Cl)ccc12 | 1.1 µM | 1.1 µM | 
CCCN1C(=O)/C(=N/Nc2ccnc3cc(Cl)ccc23)c2ccccc21 | 3.16 µM | 5.49 µM | 
CN1C(=O)/C(=N/Nc2ccnc3cc(Cl)ccc23)c2cc(Br)ccc21 | 1.74 µM | 3.46 µM | 
CCN1C(=O)/C(=N/Nc2ccnc3cc(Cl)ccc23)c2cc(Cl)ccc21 | 2.96 µM | 4.34 µM | 
CCCN1C(=O)/C(=N/Nc2ccnc3cc(Cl)ccc23)c2cc(Cl)ccc21 | 2.99 µM | 4.99 µM | 
O=C1/C(=N/Nc2ccnc3cc(Cl)ccc23)c2ccccc2N1Cc1ccccc1 | 3.97 µM | 6.88 µM | 
O=C1Nc2ccc(Cl)cc2/C1=N/Nc1ccnc2cc(Cl)ccc12 | 0.67 µM | 1.26 µM | 
CCN1C(=O)/C(=N/Nc2ccnc3cc(Cl)ccc23)c2cc(Br)ccc21 | 3.21 µM | 5.12 µM | 
CN1C(=O)/C(=N\Nc2ccnc3cc(Cl)ccc23)c2ccccc21 | 1.88 µM | 3.49 µM | 
O=C1Nc2ccc(F)cc2/C1=N/Nc1ccnc2cc(Cl)ccc12 | 0.557 µM | 0.721 µM | Activity [3]: 90%; Activity [4]: 25%; selectivity ratio [5]: 255; Activity [6]: 84%; Activity [7]: 80%; Activity [8]: 94%; CC50 at 72 h [9]: 184 µM
CN1C(=O)/C(=N/Nc2ccnc3cc(Cl)ccc23)c2cc(Cl)ccc21 | 1.87 µM | 3.25 µM | 
CC(C)CN1C(=O)/C(=N\Nc2ccnc3cc(Cl)ccc23)c2ccccc21 | 2.67 µM | 3.99 µM | 
O=C1Nc2ccccc2/C1=N/Nc1ccnc2cc(Cl)ccc12 | 0.986 µM | 2.45 µM | 
O=C1/C(=N/Nc2ccnc3cc(Cl)ccc23)c2cc(Cl)ccc2N1Cc1ccccc1 | 4 µM | 5.3 µM | 
O=C1Nc2ccc(OC(F)(F)F)cc2/C1=N/Nc1ccnc2cc(Cl)ccc12 | 0.668 µM | 0.944 µM | Activity [3]: 93%; Activity [4]: 28%; selectivity ratio [5]: 326; Activity [6]: 96%; Activity [7]: 86%; Activity [8]: 98%; CC50 at 72 h [9]: 308 µM
CC(C)CN1C(=O)/C(=N/Nc2ccnc3cc(Cl)ccc23)c2cc(Br)ccc21 | 4.11 µM | 6.86 µM | 
O=C1Nc2ccc(Br)cc2/C1=N/Nc1ccnc2cc(Cl)ccc12 | 0.508 µM | 0.604 µM | Activity [3]: 87%; Activity [4]: 21%; selectivity ratio [5]: 258; Activity [6]: 76%; Activity [7]: 74%; Activity [8]: 91%; CC50 at 72 h [9]: 156 µM
COc1cc(Cc2cnc(N)nc2N)cc(OC)c1OC [TRIMETHOPRIM] |  |  | Activity [3]: 99%; Activity [4]: 71%
